Biological target: T1, His-p38δ (Homo sapiens, UniProt O15264)
T1 construct: encoding a region spanning amino acids 1-365 was PCR-amplified; made in house; host or cells: E. coli BL21-CodonPlus(DE3)-RIPL
T1 sequence (O15264 1-365): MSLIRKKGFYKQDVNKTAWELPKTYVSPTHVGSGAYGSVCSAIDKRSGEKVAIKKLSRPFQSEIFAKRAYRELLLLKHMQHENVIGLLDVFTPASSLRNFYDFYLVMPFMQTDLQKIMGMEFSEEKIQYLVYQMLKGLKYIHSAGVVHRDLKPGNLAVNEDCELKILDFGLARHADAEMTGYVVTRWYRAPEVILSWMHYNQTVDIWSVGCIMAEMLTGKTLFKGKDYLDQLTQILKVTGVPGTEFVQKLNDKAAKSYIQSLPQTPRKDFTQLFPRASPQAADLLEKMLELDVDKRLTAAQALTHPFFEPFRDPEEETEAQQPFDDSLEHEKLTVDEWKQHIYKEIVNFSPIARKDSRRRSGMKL
Assay: SPR binary affinity, compound on immobilized His-p38δ
Format: binding
Settings: for Kd: His-p38δ immobilized, read-out: PROTAC:p38δ Kd
Experimental: FIGS. 16A, 16B, and 16C. SPR curves assessing binary and ternary interactions. […] Equimolar p38δ:PROTAC mixtures were injected onto immobilized GST-VBC and allowed to dissociate overtime. […] See Table 12 for a summary of the binary and ternary affinity and kinetic measurements. […] Next, with the same setup, equimolar p38δ:PROTAC dilutions were successively injected onto immobilized VHL for 60 seconds, prior to monitoring complex dissociation for the remaining 300 seconds. This SPR strategy enabled us to determine effective ternary affinities for a given p38δ:PROTAC:VHL complex and compare the relative affinity change that occurs between VHL:PROTAC when p38δ is present in the mixture. […] This p38δ region was cloned into a pET28a vector containing an N-terminal His6 tag using NheI and BamHI restriction sites. As before, BL21-CodonPlus(DE3)-RIPL E. coli cells (Agilent Technologies) were transformed with pET[…]6-p38delta and were selected in LB medium containing kanamycin (50 μg mL^1), chloramphenicol (15 μg mL^-1), and spectinomycin (50 μg mL^-1) at 37° C. until OD600=0.8. […] Pure fractions of p38δ were pooled, concentrated to 3 mg mL^-1, aliquoted, and flash-frozen before storing at -80° C. SPR experiments were conducted on a Biacore 3000 instrument (GE Healthcare) at room temperature. GST antibody was immobilized through direct amination onto a carboxymethylated dextran surface (CM5) and GST-VBC was captured on the CM5 surface. This prepared surface was equilibrated over three hours in running buffer (10 mM HEPES buffer pH 7.4, 150 mM NaCl, 0.4 mg mL^-1 BSA, 0.005% P20, 2% DMSO). All compounds were prepared in 100% DMSO stock plates with a top concentration of 500 μM in a 3× serial dilution. Exemplary compounds were transferred from the stock plate to the assay plate and diluted into running buffer without DMSO. Equimolar concentration of target protein was added to corresponding compound wells. All exemplary compounds were run as a twelve point-concentration series with a final assay top concentration of 50 μM to measure p38δ:PROTAC and VHL:PROTAC binding and top concentration of 5 μM to measure p38δ:PROTAC:VHL binding. All exemplary compounds were injected for 60 seconds and allowed to dissociate for 300 seconds. Data analysis was performed in Scrubber 2 (BioLogic Software). Blanks from reference flow cell containing immobilized GST-VBC were subtracted to correct for noise and data was solvent-corrected against a standard DMSO curve.

SMILES | loss of affinity for p38δ compared to the PTM (foretinib) | Kd [nM]
COc1cc2c(Oc3ccc(NC(=O)C4(C(=O)Nc5ccc(F)cc5)CC4)cc3F)ccnc2cc1OCCOCCOCCOc1cc(-c2scnc2C)ccc1CNC(=O)[C@@H]1C[C@@H](O)CN1C(=O)[C@H](C(C)C)N1Cc2ccccc2C1=O [compound 46] | about 2 fold | 550
COc1cc2c(Oc3ccc(NC(=O)C4(C(=O)Nc5ccc(F)cc5)CC4)cc3F)ccnc2cc1OCCCCOCCCCOCC(=O)N[C@H](C(=O)N1C[C@H](O)C[C@H]1C(=O)NCc1ccc(-c2scnc2C)cc1)C(C)(C)C [compound 50, N-(3-fluoro-4-((7-(4-(4-(2-(((S)-1-((2S,4R)-4-hydroxy-2-((4-(4-methylthiazol-5-yl)benzyl)carbamoyl)pyrrolidin-1-yl)-3,3-dimethyl-1-oxobutan-2-yl)amino)-2-oxoethoxy)butoxy)buto-xy)-6-methoxyquinolin-4-yl)oxy)phenyl)-N-(4-fluorophenyl)cyclopropane-1,1-dicarboxa-mide] | about 2 fold | 500
